Source: US10874659B2, “Iloperidone metabolite for use in the treatment of psychiatric disorders” (Vanda Pharmaceuticals, Inc., priority 2012, dated 2020)

Assay: Conversion of (R)-P88 and (S)-P88 to iloperidone in human liver S9 fraction in the presence of NAD and NADP
Assay type: in vitro ADME
Details: 13 concentrations 1 to 100 μM, initial rate conditions
Procedure: The aim of this study was to evaluate the potential conversion of (R)-P88 and (S)-P88 to iloperidone in human liver S9 fraction in the presence of NAD and NADP. A copy of the final report from this study, entitled, “InVitro Metabolism of (R)-P88 and (S)-P88 in Human Liver S9 Fraction,” (“Final Report”) is attached.
Three concentrations of (R)-P88 and (S)-P88 (1, 10 and 100 μM) were incubated with human liver S9 fractions in the presence of NAD and NADP. Under initial rate conditions, 13 concentrations of (R)-P88 and (S)-P88 (1 to 100 μM) were incubated with human liver S9 fractions to determine the Michaelis-Menten enzyme kinetic constants, Km and Vmax, for the formation of iloperidone.

SMILES	Enzyme kinetic behaviour of the conversion to iloperidone (plot shape / best-fit model)
COc1cc([C@@H](C)O)ccc1OCCCN1CCC(c2noc3cc(F)ccc23)CC1 [R-P88]	slightly S-shaped direct plot and “hook”-shaped Eadie-Hofstee plot suggesting allosteric interactions
COc1cc([C@H](C)O)ccc1OCCCN1CCC(c2noc3cc(F)ccc23)CC1 [S-P88]	best fit a biphasic saturation enzyme model
